For experiment [1], the system named is Rb phosphorylated on serine 780 in CCNE1 amplified COV318 cells. In words: CDK2 pRb (S780) HTRF cellular assay. It counts as cell-based. The conditions noted are these: Homo sapiens, FIG. 10B. On the procedure:
CDK2 pRb ([…]) HTRF cellular assay enables the quantitative detection of Rb phosphorylated on […] in CCNE1 amplified COV318 cells. The assay comprised two antibodies: Europium cryptate labeled anti-Phospho-Rb […] antibody (donor) and d2 labeled anti-Rb antibody (acceptor). […] The final concentrations of compounds start from 3 μM. […] After 2 h of incubation at room temperature, HTRF signals were measured on the PHERAstar microplate reader (BMG Labtech), using 340 nm as excitation wavelength, a 620 nm filter for the Europium donor fluorescence, and a 665-nm filter for the acceptor fluorescence detection. HTRF signals were calculated as the HTRF ratio (ratio of fluorescence measured at 665 nm and 620 nm)×10000.
(In general: In TR-FRET formats the signal depends on donor and acceptor labels being close together.)

The subject of experiment [2] is CCNE1 amplified COV318 cells. In words: Cell cycle analysis by FACS in COV318 cells with control or p16 siRNA. It is filed as cell-based, human. The note with it: 100 nM, sixteen hours. On the procedure: To confirm the role of p16 in CDK2-sensitivity of CCNE-amplified cells, COV318 cells were treated with control or p16-specifict siRNA.
(§1) Bulk DNA was stained with DAPI. Compound-treated and DMSO treated control cells were acquired with CytoFlex (Beckman Coulter) and were analyzed using the FlowJo software. For cell cycle analysis of cells with siRNA knockdown, 72 hours after siRNA transfection, cells exposed to 10 μM EdU for 3 hours before detection of Click-iT Alexa Fluor® 647 azide kit.
On the technique in general: A flow cytometer gives signals particle by particle.

Experiment [3] has as its system CCNE1-amplified cell lines (COV318, OVCAR3). As to the kind of experiment: Cell cycle analysis by FACS in CCNE1-amplified cell lines. It is filed as cell-based, human. The conditions noted are these: COV318 and OVCAR3; 16 hours after treatment; compared to DMSO. On the procedure:
(§2) The effect of CDK4/6-inhibition in CCNE1-amplified versus CCNE1-non-amplified cell lines was evaluated.
(§3) A similar experiment was performed in a larger set of CCNE1-amplified cell lines (COV318 and OVCAR3) and CCNE1-non-amplified cell lines (COV504, OV56, and Igrov1) (FIG. 6).
as §1

Experiment [4] relates to Rb phosphorylation at S780 in CCNE1-non-amplified cell lines (COV504 and OV56). In words: Western blot of Rb phosphorylation at S780 in CCNE1-non-amplified cell lines. It counts as cell-based, human. The note with it: one or 15 hours after treatment, various doses. On the procedure:
The effect of CDK4/6-inhibition on Rb phosphorylation at S780 in CCNE1-amplified versus CCNE1-non-amplified cell lines was evaluated. […] One or 15 hours after treatment, the cells were harvested and total protein was extracted and analyzed by western blot (FIG. 8).
Whole cell extracts were prepared using RIPA buffer (Thermo Scientific, 89900) with a Halt Protease and Phosphatase Inhibitor Cocktail (Thermo Scientific, 78440). Protein concentration was quantified with a BCA Protein Assay Kit (Thermo Scientific, 23225) and 40 μg of protein lysates were loaded for SDS-PAGE using precast gradient gels (Bio-Rad, Hercules, No. 456-1094). Samples were diluted in 5×Laemmli buffer (300 mM Tris-HCl pH 6.8, 10% SDS (w/v), 5% 2-mercaptoethanol, 25% glycerol (v/v), 0.1% bromophenol blue w/v) and boiled for 5 minutes. […] of proteins were separated by 8-15% SDS-PAGE and transferred onto polyvinylidene fluoride (PVDF) membranes. Unspecific binding sites on the PVDF membranes were blocked with 5% non-fat milk in TBST (20 mM Tris-HCl, pH 7.6, 137 mM NaCl, 1% Tween-20). […] Images were captured by Luminescence/Fluorescence Imaging System Odyssey CLx Imager (LI-COR).
(Immunoblotting shows a protein as a band on a membrane.)

Experiment [5] deals with CCNE1-non-amplified cell lines (COV504, OV56, Igrov1). In words: Cell cycle analysis by FACS in CCNE1-non-amplified cell lines. It counts as cell-based, human. On the procedure: as §2, §3, §1

pIC50: −log10 of the molar value.

With `C[C@@]1(O)CCC[C@H]1n1c(=O)ccc2cnc(NC3CCN(S(C)(=O)=O)CC3)nc21` [Compound A, 8-((1R,2R)-2-hydroxy-2-methylcyclopentyl)-2-((1-(methylsulfonyl)piperidin-4-yl)amino)pyrido[2,3-d]pyrimidin-7(8H)-one], the pIC50 in experiment [1] was 7.43. Moreover, the “percentage of S phase cells” value was “significantly decreased” in experiment [2] (control siRNA-treated cells) and “not significantly decreased” in experiment [2] (p16 knocked down cells, compared to DMSO control).
Turning to `CC(=O)c1c(C)c2cnc(Nc3ccc(N4CCNCC4)cn3)nc2n(C2CCCC2)c1=O` [palbociclib], the “percentage of cells at the S phase” value in experiment [3] is given as “not significantly different”; in experiment [5] (COV504, OV56, Igrov1, 16 hours after treatment, compared to DMSO), “decreased in CCNE1-non-amplified cell lines in a dose-dependent fashion”. Besides, the pIC50 in experiment [1] is less than 5.52. The “Rb phosphorylation at S780” value in experiment [4] is reported as “blocked Rb phosphorylation at S780”. The “proliferation (cell cycle analysis by FACS)” value in experiment [5] (COV504 cells, sixteen hours after treatment, increasing concentrations) is recorded as “dose-dependent inhibition of the proliferation”.

The term pIC50 denotes the negative decadic logarithm of the IC50, by convention in mol/L. Read a high pIC50 as a low IC50.

For the origin of these results see US11919904B2, “Sulfonylamide compounds as CDK2 inhibitors” (Incyte Corporation, priority 2019, dated 2024).
